Peptide text beside a SMILES is read from it.
Legend:
[1] = test system: Escherichia coli ATCC 25922; conditions: ATCC 25922
Summary of the method: (§1)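 Two-fold serial dilutions of peptide, in water with polysorbate 80 (0.002% final), met bacteria adjusted to 0.5 McFarland then diluted to about 5×10^5 CFU/mL. Medium was cation-adjusted Mueller-Hinton II broth; peptide stocks were 1 mg/mL in sterile water.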

[2] = test system: Escherichia coli MCR-1 Af 45; conditions: Mueller-Hinton broth II, 18-20 hours at 35° C.
Summary of the method: as §1

[3] = test system: Klebsiella pneumoniae SSI3010; conditions: SSI3010
Summary of the method: as §1

[4] = test system: human red blood cells (hRBC); test: Hemolysis of human red blood cells; format: cell-based; conditions: red cells of human, 1 h
Summary of the method: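 PBS-washed human red blood cells (20% v/v) were incubated with peptide at 200 μg/mL for 1 h at 37 °C with shaking. Supernatant OD was read at 540 nm after 8-fold dilution. Hemolysis is expressed as percent of the water control.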

## CC[C@H](C)[C@@H]1NC(=O)[C@@H](NC(=O)[C@H](Cc2ccc(O)cc2)NC(=O)[C@@H](NC(=O)[C@@H](NC(=O)[C@@H]2C[C@@H](O)CN2C(=O)[C@@H](N)C(C)C)[C@@H](C)CC)[C@@H](C)O)C(C)(C)SSC[C@@H](C(=O)N[C@@H](CCN)C(=O)N[C@@H](CCCNC(=N)N)C(=O)N[C@@H](Cc2ccc(O)cc2)C(=O)O)NC(=O)[C@H](CCCCN)NC(=O)[C@@H](CCN)NC(=O)[C@H]([C@@H](C)O)NC(=O)[C@H](CCN)NC(=O)[C@H](CCCNC(=N)N)NC1=O [Example 163] (HELM PEPTIDE1{V.[Hyp].I.T.Y.[Pen].I.R.[Dab].T.[NCC[C@@H](N[*:1])C(=O)[*:2]].K.C.[Dab].R.Y}$PEPTIDE1,PEPTIDE1,6:R3-13:R3$$$V2.0)
[1]
  Escherichia coli ATCC 25922 MIC: 0.125 µg/mL
[2]
  Escherichia coli MCR-1 Af 45 MIC: 0.125 µg/mL
[3]
  Klebsiella pneumoniae SSI3010 MIC: 0.5 µg/mL
[4]
  Hemolysis at 0.2 g/L: 0%
